Data on 14 molecules can be found in patent US11352322B2, “Cyclopropyl-amide compounds as dual LSD1/HDAC inhibitors” (Jubilant Epicore LLC, priority 2016, dated 2022).

SMILES strings stand for the structures. Structures can show the parent of a compound that is named as a salt. Where two headings read alike, the source gives them in different places.

The target in data set [1] is HDAC6 human recombinant enzyme (Homo sapiens (Human), UniProt Q9UBN7). Put plainly: Histone Deacetylase Assay (BPS Biosciences), HDAC6. The class given is biochemical. From the text:
Histone Deacetylase Assay (BPS Biosciences)
Histone deacetylase assay was done as per manufacturer's instructions.

Data set [2] in a line: Metabolic stability in liver microsomes, MLM. The settings on record: 1 μM, NADPH. In general terms: Liver microsomes are a subcellular fraction often used to study metabolism.
Description: (§1) The microsomal suspension was prepared by adding liver microsomes to 100 mM potassium phosphate buffer (pH7.4) to give a final protein concentration of 0.5 mg/mL. The stock solution of NCE (10 mM in DMSO) was added to the microsomes to provide a final concentration of 1 μM. […] Samples were vortexed and centrifuged at 5,000 rpm for 10 min to remove proteins. Supernatant were analyzed on LC-MS/MS.
The next data set deals with MM1S. Put plainly: Anticancer activity: Alamar Blue assay, MM1S. It is filed as cell-based. The settings on record: Homo sapiens, MM1.S, read-out: MM1S EC50.
For a further data set, the target named is LSD1 (Homo sapiens (Human), UniProt O60341). Put plainly: TR-FRET Assay for LSD1. For orientation: TR-FRET usually uses a lanthanide donor and a delayed reading to cut background.
The nature of data set [3]: Metabolic stability in liver microsomes, HLM. The settings on record: 1 μM, NADPH.
Description: as §1

Chain of HDAC6 human recombinant enzyme (Q9UBN7 whole entry): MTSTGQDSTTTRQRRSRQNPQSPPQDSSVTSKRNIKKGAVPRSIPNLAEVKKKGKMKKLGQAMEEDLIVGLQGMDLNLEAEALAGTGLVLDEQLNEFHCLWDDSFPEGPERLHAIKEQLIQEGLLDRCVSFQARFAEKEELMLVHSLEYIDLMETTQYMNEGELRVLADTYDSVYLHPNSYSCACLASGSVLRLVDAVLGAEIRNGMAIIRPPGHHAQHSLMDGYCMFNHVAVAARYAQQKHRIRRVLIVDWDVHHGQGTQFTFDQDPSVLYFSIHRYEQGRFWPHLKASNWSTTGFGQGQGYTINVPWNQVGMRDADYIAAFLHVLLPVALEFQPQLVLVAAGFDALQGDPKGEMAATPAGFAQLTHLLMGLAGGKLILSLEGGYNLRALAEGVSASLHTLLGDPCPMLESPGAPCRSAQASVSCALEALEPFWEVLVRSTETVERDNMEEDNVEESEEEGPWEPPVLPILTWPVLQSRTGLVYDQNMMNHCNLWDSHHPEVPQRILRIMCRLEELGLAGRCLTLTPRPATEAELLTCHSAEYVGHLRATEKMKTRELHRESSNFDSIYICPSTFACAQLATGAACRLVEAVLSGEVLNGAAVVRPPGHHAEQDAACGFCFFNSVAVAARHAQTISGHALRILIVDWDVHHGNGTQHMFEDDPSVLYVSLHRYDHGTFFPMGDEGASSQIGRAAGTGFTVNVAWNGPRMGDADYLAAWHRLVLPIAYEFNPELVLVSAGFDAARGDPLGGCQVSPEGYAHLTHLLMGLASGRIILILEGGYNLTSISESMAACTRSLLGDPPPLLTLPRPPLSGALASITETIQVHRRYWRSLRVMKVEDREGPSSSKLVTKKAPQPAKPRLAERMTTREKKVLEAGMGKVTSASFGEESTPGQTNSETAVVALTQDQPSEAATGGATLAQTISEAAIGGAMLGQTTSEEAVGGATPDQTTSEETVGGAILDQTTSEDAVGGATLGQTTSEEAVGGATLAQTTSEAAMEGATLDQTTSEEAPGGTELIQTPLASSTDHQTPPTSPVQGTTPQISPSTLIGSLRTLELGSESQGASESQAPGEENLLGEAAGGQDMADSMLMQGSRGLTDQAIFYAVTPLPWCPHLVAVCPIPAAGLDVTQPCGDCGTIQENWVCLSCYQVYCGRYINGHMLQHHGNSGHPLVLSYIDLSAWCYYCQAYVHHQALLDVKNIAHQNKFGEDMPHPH
Description for LSD1: TR-FRET Assay for LSD1 (Perkin Elmer)
Tranylcypromine (TCP), LSD1 inhibitor was procured from Selleckchem. […] Stop Solution containing 300 μM tranylcypromine in 1× LANCE Detection Buffer was added to the wells and incubated for 5 min at RT. Then, Detection mix containing 2 nM Eu-Ab and 50 nM ULight-Streptavidin in 1× LANCE Detection Buffer was prepared and added to the reaction mix. This mixture was incubated for 1 hour at room temperature.
Description for MM1S: Cells were seeded at 5000 cells/per well in 96-well tissue culture plate and incubated at 37° C./5% CO2. After 16-24 hours, fresh media was added to the wells. Compounds were then (1% DMSO conc.) added to the cells at 10 concentrations ranging from 10-0.0005 uM prepared in 3-fold serial dilutions. Cells were incubated for 68-72 h at 37° C./5% CO2. Alamar Blue™ reagent was added and incubated for 1-3 hours at 37° C./5% CO2. Plates were read on fluorescence reader at 540 nm excitation, 590 nm emission wave lengths.

As for `O=C(NO)c1ccc(CCCN2CC(CNC3CC3c3ccc(F)cc3)C2)cc1` (stereo not shown) [Example 48, 4-(3-(3-(((2-(4-fluorophenyl)cyclopropyl)amino)methyl)azetidin-1-yl)propyl)-N-hydroxy benzamide TFA Salt], the IC50 (usually the concentration that inhibits the measured activity by half) in data set [1] turned out to be 184 nM; on LSD1 (read-out: LSD1 IC50), 29 nM. The “Metabolic stability MLM % remaining in 30 min” value in data set [2] is given as less than 5%. For the same molecule, the EC50 (as a rule, the concentration at which the effect is half-maximal) in the data set with MM1S (MM1S cells) came to 25 nM. In addition, the “Metabolic stability HLM % remaining in 30 min” value in data set [3] came out at 85%.

Take `O=C(NO)c1ccc(CCCN2CC(CNC3CC3c3ccc(-c4ccc(F)cc4)cc3)C2)cc1` (stereo not shown) [Example 58, 4-(3-(3-(((2-(4′-fluoro-[1,1′-biphenyl]-4-yl)cyclopropyl)amino)methyl)azetidin-1-yl)propyl)-N-hydroxybenzamide TFA Salt]: the IC50 was found to be 43 nM in data set [1] and 25 nM at LSD1 (read-out: LSD1 IC50). Besides, in data set [2], the “Metabolic stability MLM % remaining in 30 min” value is on record as 91%. The EC50 with MM1S is 15 nM. For the same molecule, the “Metabolic stability HLM % remaining in 30 min” value in data set [3] was 85%.

As for `Cn1cc(-c2ccc(C3CC3NCC3CCN(CCCc4ccc(C(=O)NO)cc4)CC3)cc2)cn1` (stereo not shown) [Example 62, N-hydroxy-4-(3-(4-(((2-(4-(1-methyl-1H-pyrazol-4-yl)phenyl)cyclopropyl)amino)methyl)piperidin-1-yl)propyl) benzamide TFA Salt], the IC50 amounted to 66 nM in data set [1] and 43 nM on LSD1 (read-out: LSD1 IC50). Also, in data set [2], the “Metabolic stability MLM % remaining in 30 min” value is 66%. For the same molecule, the EC50 in the data set on MM1S (MM1S cells) came to 7 nM. Moreover, the “Metabolic stability HLM % remaining in 30 min” value in data set [3] was 77%.

Take `Cc1noc(C)c1-c1ccc(C2CC2NCC2CCN(CCCc3ccc(C(=O)NO)cc3)CC2)cc1.O=C(O)C(F)(F)F` (stereo not shown) [Example 64, 4-(3-(4-(((2-(4-(3,5-dimethylisoxazol-4-yl)phenyl)cyclopropyl)amino)methyl)piperidin-1-yl)propyl)-N-hydroxybenzamide TFA Salt]: the IC50 in data set [1] is 58 nM; on LSD1, 59 nM. Moreover, the “Metabolic stability MLM % remaining in 30 min” value in data set [2] is recorded as 77%. Also, the concentration giving a half-maximal response (EC50) in the data set on MM1S (MM1S cells) stood at 11 nM. Also, in data set [3], the “Metabolic stability HLM % remaining in 30 min” value was found to be 82%.

Take `O=C(NO)c1ccc(CN2CCc3ccc(CNC4CC4c4ccc(F)cc4)cc3C2)cc1` (stereo not shown) [Example 79, 4-((7-(((2-(4-fluorophenyl)cyclopropyl)amino)methyl)-3,4-dihydroisoquinolin-2(1H)-yl)methyl)-N-hydroxybenzamide TFA Salt]: the IC50 in data set [1] turned out to be 24 nM; on LSD1 (read-out: LSD1 IC50), 79 nM. Besides, the “Metabolic stability MLM % remaining in 30 min” value in data set [2] is 6%. In addition, the EC50 in the data set with MM1S came out at 39 nM. In addition, in data set [3], the “Metabolic stability HLM % remaining in 30 min” value is on record as 18%.

Regarding `O=C(NO)c1ccc(CN2CCn3cc(CNC4CC4c4ccc(F)cc4)nc3C2)cc1` (stereo not shown) [Example 80, 4-((2-(((2-(4-fluorophenyl)cyclopropyl)amino)methyl)-5,6-dihydroimidazo[1,2-a]pyrazin-7(8H)-yl)methyl)-N-hydroxybenzamide TFA Salt], the values for the IC50 (in data set [1]; on LSD1 (read-out: LSD1 IC50)) were 68 nM and 1500 nM, respectively. For the same molecule, the “Metabolic stability MLM % remaining in 30 min” value in data set [2] is on record as 87%. Further, the EC50 with MM1S came to 331 nM. Moreover, the “Metabolic stability HLM % remaining in 30 min” value in data set [3] stood at 82%.

Regarding `CN1C(=O)C(C)(C)c2cc(C3CC3NCC3CCN(CCCc4ccc(C(=O)NO)cc4)CC3)ccc21` (stereo not shown) [Example 81, N-hydroxy-4-(3-(4(((2-(1,3,3,-trimethyl-2-oxoindoline-5-yl)cyclopropyl)amino)methyl)piperidine-1-yl)propyl)benzamide TFA Salt], the IC50 in data set [1] amounted to 125 nM; on LSD1 (read-out: LSD1 IC50) it was 394 nM. The “Metabolic stability MLM % remaining in 30 min” value in data set [2] is listed as >95/>95%. In addition, the EC50 in the data set on MM1S (MM1S cells) is 22 nM. Also, the “Metabolic stability HLM % remaining in 30 min” value in data set [3] is listed as >95/>95%.

As for `O=C(NO)c1ccc(CCC(=O)N2CCC(CNC3CC3c3ccccc3)CC2)cc1` (stereo not shown) [Example 82, N-hydroxy-4-(3-oxo-3-(4-(((2-phenylcyclopropyl)amino)methyl)piperidin-1-yl)propyl)benzamide TFA Salt], the values for the IC50 (in data set [1]; at LSD1 (read-out: LSD1 IC50)) were 35 nM and 94 nM, respectively. Also, in data set [2], the “Metabolic stability MLM % remaining in 30 min” value is given as 72%. Also, the EC50 in the data set with MM1S is 619 nM. In addition, in data set [3], the “Metabolic stability HLM % remaining in 30 min” value is 77%.

For the molecule `O=C(NO)c1ccc(C(=O)NCCN2CCC(CNC3CC3c3ccc(F)c(F)c3)CC2)cc1` (stereo not shown) [Example 90, N1-(2-(4-(((2-(3,4-difluorophenyl)cyclopropyl)amino)methyl)piperidin-1-yl)ethyl)-N4-hydroxyterephthalamide TFA Salt], the values for the IC50 (in data set [1]; at LSD1 (read-out: LSD1 IC50)) were 170 nM and 21 nM, respectively. Moreover, the “Metabolic stability MLM % remaining in 30 min” value in data set [2] stood at 93%. Besides, in the data set with MM1S, the EC50 is 339 nM. The “Metabolic stability HLM % remaining in 30 min” value in data set [3] came to 80%.

`O=C(NO)c1ccc(OCCNC2CC2c2ccccc2)cc1` (stereo not shown) [Example 95, N-hydroxy-4-(2-((2-phenylcyclopropyl)amino)ethoxy)benzamide TFA Salt]: the IC50 amounted to 350 nM in data set [1] and 33 nM on LSD1 (read-out: LSD1 IC50). The “Metabolic stability MLM % remaining in 30 min” value in data set [2] came out at 55%. For the same molecule, the EC50 in the data set with MM1S is 144 nM. Also, in data set [3], the “Metabolic stability HLM % remaining in 30 min” value came to 75%.

For the molecule `O=C(NO)c1ccc(OCCN2CCC(CNC3CC3c3ccccc3)CC2)cc1` (stereo not shown) [Example 99, N-hydroxy-4-(2-(4-(((2-phenylcyclopropyl)amino)methyl)piperidin-1-yl)ethoxy)benzamide TFA Salt], the IC50 in data set [1] stood at 51 nM; at LSD1 (read-out: LSD1 IC50), 4 nM. In addition, the “Metabolic stability MLM % remaining in 30 min” value in data set [2] turned out to be 76%. In addition, the EC50 in the data set on MM1S was found to be 27 nM. Also, the “Metabolic stability HLM % remaining in 30 min” value in data set [3] came to 63%.

Consider `O=C(NO)c1cnc(NCCN2CCC(CNC3CC3c3ccc(F)cc3)CC2)nc1` (stereo not shown) [Example 102, 2-((2-(4-(((2-(4-fluorophenyl)cyclopropyl)amino)methyl)piperidin-1-yl)ethyl)amino)-N-hydroxypyrimidine-5-carboxamide TFA Salt], for which the IC50 is 75 nM in data set [1] and 22 nM at LSD1 (read-out: LSD1 IC50). Further, the “Metabolic stability MLM % remaining in 30 min” value in data set [2] is recorded as >99/>99%. Moreover, the EC50 with MM1S came to 5 nM. For the same molecule, in data set [3], the “Metabolic stability HLM % remaining in 30 min” value was >99/>99%.

Regarding `O=C(NO)c1cc2c(s1)CCN(C(=O)CCCN1CCC(CNC3CC3c3ccc(F)cc3)CC1)C2` (stereo not shown) [Example 106, 5-(4-(4-(((2-(4-fluorophenyl)cyclopropyl)amino)methyl)piperidin-1-yl)butanoyl)-N-hydroxy-4,5,6,7-tetrahydrothieno[3,2-c]pyridine-2-carboxamide TFA Salt], the IC50 was determined as 35 nM in data set [1] and 26 nM on LSD1 (read-out: LSD1 IC50). Further, in data set [2], the “Metabolic stability MLM % remaining in 30 min” value was 92%. In addition, in the data set on MM1S, the EC50 amounted to 14 nM. For the same molecule, the “Metabolic stability HLM % remaining in 30 min” value in data set [3] turned out to be 74%.

Take `O=C(NO)c1csc(CCCN2CCC(CNC3CC3c3ccccc3)CC2)n1.O=C(O)C(F)(F)F` (stereo not shown) [Example 110, N-hydroxy-2-(3-(4-(((2-phenylcyclopropyl)amino)methyl)piperidin-1-yl)propyl)thiazole-4-carboxamide TFA Salt]: the IC50 was greater than 10000 nM in data set [1] and 26 nM on LSD1. Besides, the “Metabolic stability MLM % remaining in 30 min” value in data set [2] is on record as 95%. In addition, the EC50 with MM1S (MM1S cells) is greater than 10000 nM. Also, the “Metabolic stability HLM % remaining in 30 min” value in data set [3] amounted to 88%.
